How the values were obtained:
[1] = test system: cultured human mast cells (CHMC); assay: CHMC low cell density ionomycin activation: tryptase assay; format: cell-based
[2] = test system: cultured human mast cells (CHMC); assay: CHMC low cell density IgE activation: tryptase assay; format: cell-based; conditions: anti-IgE
Outline: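 CHMC resuspended in pre-warmed MT buffer at 1000-1500 cells/well (donor-dependent) and preincubated 1 hr at 37° C, then stimulated with anti-IgE for 30 min at 37° C; unstimulated wells got MT alone. Supernatant tryptase activity read with tryptase substrate after 30 min at room temperature.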

Row | Molecule | IC50 [1] [µM] | IC50 [2] [µM]
1 | O=C(CNc1cccc(Nc2ncc(F)c(Nc3cccc(O)c3)n2)c1)N1CCNCC1 [R950222, 5-Fluoro-N4-(3-hydroxyphenyl)-N2-[3-(N-piperazino)carbonylmethyleneaminophenyl]-2,4-pyrimidinediamine] | > 10 | 0.865
2 | O=C(CNc1cccc(Nc2ncc(F)c(Nc3ccc4c(c3)OCCO4)n2)c1)NCCNCc1ccccc1 [R950198, N2-[3-(N-Benzylamino)ethyleneaminocarbonylmethyleneaminophenyl]-N4-(3,4-ethylenedioxyphenyl)-5-fluoro-2,4-pyrimidinediamine] | > 10 | 0.406
3 | CNC(=O)COc1cccc(Nc2ncc(F)c(Nc3ccc(OC)c(OC)c3)n2)c1 [R926733, N4-(3,4-Dimethoxyphenyl)-5-fluoro-N2-[3-(N-methylamino)carbonylmethyleneoxyphenyl]-2,4-pyrimidinediamine] | > 10 | 1.5
4 | CCOC(=O)C(C)(C)c1ccc(Nc2nc(Nc3cccc(O)c3)ncc2F)cc1 [R935169, N4-[4-[(1-Ethoxycarbonyl-1-methyl)ethyl]phenyl]-5-fluoro-N2-(3-hydroxyphenyl)-2,4-pyrimidinediamine] | 8.01 | 0.999
5 | COC(=O)COc1cccc(Nc2ncc(F)c(Nc3cc(C)c(OC)c(C)c3)n2)c1 [R945153, N4-(3,5-Dimethyl-4-methoxyphenyl)-5-fluoro-N2-(3-methoxycarbonylmethyleneoxyphenyl)-2,4-pyrimidinediamine] | 6.56 | 0.688
6 | CNC(=O)COc1cccc(Nc2ncc(F)c(Nc3ccc4c(c3)NC(C)(C)CO4)n2)c1 [R909309, N4-(3,3-Dimethyl-1,4-benzoxazin-6-yl)-5-fluoro-N2-[3-(N-methylaminocarbonylmethyleneoxy)phenyl]-2,4-pyrimidinediamine] | > 10 | 0.083
7 | O=[N+]([O-])c1ccc(NCCO)c(Nc2ncc(F)c(Nc3cc([N+](=O)[O-])ccc3NCCO)n2)c1 [R950150, N2,N4-Bis(2-hydroxyethyleneamino-5-nitrophenyl)-5-fluoro-2,4-pyrimidinediamine] | > 10 | > 10
8 | Fc1cnc(Nc2ccc3[nH]ncc3c2)nc1Nc1ccc(Cl)cc1 [R935365, N4-(4-Chlorophenyl)-5-fluoro-N2-(indazoline-5-yl)-2,4-pyrimidinediamine] | > 10 | 0.373
9 | Cc1cc(Nc2ncc(F)c(Nc3ccc4cn[nH]c4c3)n2)cc(Cl)c1O [R935264, N2-(3-Chloro-4-hydroxy-3-methylphenyl)-5-fluoro-N4-(indazoline-6-yl)-2,4-pyrimidinediamine] | > 10 | 0.135
10 | CN(C)C(=O)COc1cccc(Nc2ncc(F)c(Nc3ccc4c(c3)OCCO4)n2)c1 [R925755, N4-(3,4-Ethylenedioxyphenyl)-N2-[3-(N,N-dimethylamino)carbonylmethyleneoxyphenyl]-5-fluoro-2,4-pyrimidinediamine] | > 10 | 0.898
11 | CNC(=O)COc1cccc(Nc2ncc(F)c(Nc3cc(OC)cc(C(F)(F)F)c3)n2)c1 [R926833, 5-Fluoro-N4-(3-methoxy-5-trifluoromethylphenyl)-N2-[3-(N-methylamino)carbonylmethyleneoxyphenyl]-2,4-pyrimidinediamine] | > 10 | 1.13
12 | CC(CO)Nc1cccc(Nc2ncc(F)c(Nc3cccc(NC(C)CO)c3)n2)c1 (centres unmarked) [R950171, N2,N4-Bis[3-N-(2-hydroxy-1-methylethyl)aminophenyl]-5-fluoro-2,4-pyrimidinediamine] | > 10 | 0.585
13 | CC(C)NC(=O)COc1cccc(Nc2ncc(F)c(Nc3ccc4c(c3)NCCO4)n2)c1 [R909254, N4-(1,4-Benzoxazin-6-yl)-N2-[3-(N-isopropylamino)carbonylmethyleneoxyphenyl]-5-fluoro-2,4-pyrimidinediamine] | > 10 | 0.136
14 | Cc1nc(COc2cccc(Nc3ncc(F)c(Nc4ccc5oc(C(N)=O)cc5c4)n3)c2)no1 [R945135, N4-(2-Aminocarbonylbenzofuran-5-yl)-5-fluoro-N2-[3-(5-methyl-1,2,4-oxadiazol-3-yl)methyleneoxyphenyl]-2,4-pyrimidinediamine] | 8.25 | 0.986
15 | COC(=O)Cn1ncc2cc(Nc3nc(Nc4ccc(OC(C)C)cc4)ncc3F)ccc21 [R935242, 5-Fluoro-N2-(4-isopropoxyphenyl)-N4-[1-(methoxycarbonyl)methyl-indazoline-5-yl]-2,4-pyrimidinediamine] | > 10 | 2.85
16 | Cc1cnc(Nc2ccc(OCc3nnnn3C)cc2)nc1Nc1cccc(O)c1 [R920894, N4-(3-Hydroxyphenyl)-5-methyl-N2-[4-(1-methyl-1,2,3,4-tetrazol-5-yl)methyleneoxyphenyl]-2,4-pyrimidineamine] | 5.57 | 0.888
17 | N#Cc1cnc(Nc2cccc(O)c2)nc1Nc1ccc(OCC(=O)NCC2CC2)cc1 [R925845, 5-Cyano-N4-[4-(N-cyclopropylmethylamino)carbonylmethyleneoxyphenyl]-N2-(3-hydroxyphenyl)-2,4-pyrimidinediamine] | > 10 | 2.3

Row | Molecule | IC50 [1] [µM] | IC50 [2] [µM]
18 | COC(=O)COc1cccc(Nc2ncc(F)c(Nc3cccc(OCC(=O)OC)c3)n2)c1 [R926255, N2,N4-Bis[(3-methoxycarbonylmethyleneoxy)phenyl]-5-fluoro-2,4-pyrimidinediamine] | 4.5 | 1.4
19 | CNC(=O)COc1cccc(Nc2ncc(F)c(Nc3cccc(N)c3)n2)c1 [R950263, N4-(3-Aminophenyl)-5-fluoro-N2-[3-(N-methylamino)carbonylmethyleneoxyphenyl]-2,4-pyrimidinediamine] | 3.3 | 0.284
20 | Oc1cccc(Nc2nc(Nc3cc(Br)cc(C(F)(F)F)c3)ncc2F)c1 [R926846, N2-(3-Bromo-5-trifluorophenyl)-5-fluoro-N4-(3-hydroxyphenyl)-2,4-pyrimidinediamine] | 6.26 | 0.86
21 | COc1ccc([C@@H](C)Nc2ncc(Br)c(N[C@H](C)c3ccc(OC)cc3)n2)cc1 [R935016, N2,N4-Bis[1(R)-4-methoxyphenylethyl]-5-bromo-2,4-pyrimidineamine] | > 10 | > 10
22 | C[C@H](Nc1nc(Nc2ccc3c(c2)OCCO3)ncc1F)[C@H](O)c1ccccc1 [R925766, N2-(3,4-Ethylendioxyphenyl)-5-fluoro-N4-[(2R)-hydroxy-(1S)-methyl-2-phenylethyl)-2,4-pyrimidinediamine] | > 10 | 8.9
23 | CCOC(=O)COc1cccc(Nc2ncc(F)c(Nc3cc(Cl)c(O)c(Cl)c3)n2)c1 [R950185, N4-(3,5-Dichloro-4-hydroxyphenyl)-N2-(3-ethoxycarbonylmethyleneoxyphenyl)-5-fluoro-2,4-pyrimidinediamine] | 8.81 | 1.03
24 | CCOC(=O)c1cnc(Nc2cccc(OCC(=O)NC)c2)nc1Nc1cc(OC)cc(OC)c1 [R926801, N4-(3,5-Dimethoxyphenyl)-5-ethoxycarbonyl-N2-[3-(N-methylamino)carbonylmethyleneoxyphenyl]-2,4-pyrimidinediamine] | > 10 | 10
25 | N2-(3,4-Ethylenedioxyphenyl)-5-ethoxycarbonyl-4-[N-(L)-phenyl glycinyl ethyl ester)-2-pyrimidineamine [R926536] | > 10 | > 10
26 | CNC(=O)COc1cccc(Nc2ncc(F)c(Nc3ccc4[nH]ncc4c3)n2)c1 [R935279, 5-Fluoro-N4-(indazoline-5-yl)-N2-[3-(N-methylaminocarbonylmethyleneoxy)phenyl]-2,4-pyrimidinediamine] | > 10 | 0.889
27 | CCOC(=O)c1cnc(Nc2ccc(OCC(=O)OC)cc2)nc1Nc1ccc(OCC(=O)OC(C)(C)C)cc1 [R926579, N4-(4-tert-Butoxycarbonylmethyleneoxyphenyl)-5-ethoxycarbonyl-N2-(4-methoxycarbonylmethyleneoxyphenyl)-2,4-pyrimidinediamine] | > 10 | > 10
28 | CNCCNC(=O)c1cc2cc(Nc3ncc(F)c(Nc4ccc5oc(C(=O)NCCNC)cc5c4)n3)ccc2o1 [R950170, N2,N4-Bis[2-[2-(methylamino)ethyleneaminocarbonyl]-benzofurane-5-yl]-5-fluoro-2,4-pyrimidinediamine] | > 10 | > 10
29 | Oc1cccc(Nc2nc(Nc3ccc(OCc4nnn[nH]4)cc3)ncc2F)c1 [R920818, 5-Fluoro-N4-(3-hydroxyphenyl)-N2-[4-(1,2,3,4-tetrazol-5-yl)methyleneoxyphenyl]-2,4-pyrimidinediamine] | > 10 | > 10
30 | CCOC(=O)COc1cccc(Nc2nc(Nc3cccc(O)c3)ncc2F)c1 [R926775, N4-(3-Ethoxycarbonylmethyleneoxyphenyl)-5-fluoro-N2-(3-hydroxyphenyl)-2,4-pyrimidinediamine] | > 10 | 3.47
31 | Cc1noc(COc2ccc(Nc3nc(Nc4cccc(O)c4)ncc3F)cc2)n1 [R935147, 5-Fluoro-N2-(3-hydroxyphenyl)-N4-[4-(3-methyl-1,2,4-oxadiazol-5-yl)methyleneoxyphenyl]-2,4-pyrimidinediamine] | > 10 | 1.4
32 | O=C(CNc1cccc(Nc2ncc(F)c(Nc3ccc4c(c3)OCCO4)n2)c1)N1CCOCC1 [R950193, N4-(3,4-Ethylenedioxyphenyl)-5-fluoro-N2-[3-(N-morpholino)carbonylmethyleneaminophenyl]-2,4-pyrimidinediamine] | > 10 | 0.61
33 | Fc1cnc(Cl)nc1Nc1ccc2c(c1)CN(c1nc(Cl)ncc1F)CC2 [Compound R926910] | > 10 | > 10
34 | Fc1cnc(Nc2ccc3cn[nH]c3c2)nc1Nc1ccc2cn[nH]c2c1 [R935188, N2,N4-Bis(indazolin-6-yl)-5-fluoro-2,4-pyrimidinediamine] | > 10 | 0.239
